Earlier results as cited in US20240182984A1, “METHODS FOR ASSESSING PROLIFERATION AND ANTI-FOLATE THERAPEUTIC RESPONSE” (priority 2021, published 2024).

System: bronchioid subtype of LUAD
Conditions: compared with other LUAD subtypes

## Nc1nc2[nH]cc(CCc3ccc(C(=O)N[C@@H](CCC(=O)O)C(=O)O)cc3)c2c(=O)[nH]1 [pemetrexed]
  sensitivity of the bronchioid subtype of LUAD (Group 1): more sensitive
